Key:
Experiment in all cases: relative viability (nuclei count vs DMSO), 5 days (fraction); higher = more cells survive
XMD8-85 + Tozasertib = compound: CN1CCN(CC1)C2=CC(=C(C=C2)NC3=NC=C4C(=N3)N(C5=CC=CC=C5C(=O)N4C)C)OC [XMD8-85] + Cc1cc(Nc2cc(N3CCN(C)CC3)nc(Sc3ccc(NC(=O)C4CC4)cc3)n2)n[nH]1 [Tozasertib] (partner 0.1 µM)
Procedure, shortened: (§1)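 After 5 days of treatment, lung cancer cells in 1536-well plates were fixed and stained in a single step (final 0.05% Triton X-100, 1% formaldehyde, 1 ug/ml Hoechst) and their nuclei counted on 4× images. Treatment had been applied by pin tool the day after seeding as one drug alone or as a fixed anchor-drug dose with five library-drug doses (not always all listed) in √10 steps. Relative viability is the nuclei count of treated wells divided by that of vehicle wells, and values are medians of duplicate plates.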

XMD8-85 + AZD7762 = compound: CN1CCN(CC1)C2=CC(=C(C=C2)NC3=NC=C4C(=N3)N(C5=CC=CC=C5C(=O)N4C)C)OC [XMD8-85] + NC(=O)Nc1cc(-c2cccc(F)c2)sc1C(=O)N[C@H]1CCCNC1 [AZD7762] (partner 0.2 µM)
Procedure, shortened: as §1

XMD8-85 + Pemetrexed = compound: CN1CCN(CC1)C2=CC(=C(C=C2)NC3=NC=C4C(=N3)N(C5=CC=CC=C5C(=O)N4C)C)OC [XMD8-85] + Nc1nc2[nH]cc(CCc3ccc(C(=O)N[C@@H](CCC(=O)O)C(=O)O)cc3)c2c(=O)[nH]1 [Pemetrexed] (partner 0.2 µM)
Procedure, shortened: as §1

4EGI-1 + Phenformin = compound: O=C(O)C(Cc1ccccc1[N+](=O)[O-])=NNc1nc(-c2ccc(Cl)c(Cl)c2)cs1 (mixture of isomers) [4EGI-1] + N=C(N)NC(=N)NCCc1ccccc1 [Phenformin] (partner 250 µM)
Procedure, shortened: as §1

| Cell Line | relative viability (XMD8-85 + Tozasertib; first compound 0.08 µM) | relative viability (XMD8-85 + Tozasertib; first compound 0.253 µM) | relative viability (XMD8-85 + Tozasertib; first compound 0.8 µM) | relative viability (XMD8-85 + Tozasertib; first compound 2.53 µM) | relative viability (XMD8-85 + Tozasertib; first compound 8 µM) | relative viability (XMD8-85 + AZD7762; first compound 0.08 µM) | relative viability (XMD8-85 + AZD7762; first compound 0.253 µM) | relative viability (XMD8-85 + AZD7762; first compound 0.8 µM) | relative viability (XMD8-85 + AZD7762; first compound 8 µM) | relative viability (XMD8-85 + Pemetrexed; first compound 0.08 µM) | relative viability (XMD8-85 + Pemetrexed; first compound 0.253 µM) | relative viability (XMD8-85 + Pemetrexed; first compound 0.8 µM) | relative viability (XMD8-85 + Pemetrexed; first compound 2.53 µM) | relative viability (XMD8-85 + Pemetrexed; first compound 8 µM) | relative viability (4EGI-1 + Phenformin; first compound 0.5 µM) | relative viability (4EGI-1 + Phenformin; first compound 1.581 µM) | relative viability (4EGI-1 + Phenformin; first compound 5 µM) | relative viability (4EGI-1 + Phenformin; first compound 15.81 µM) | relative viability (4EGI-1 + Phenformin; first compound 50 µM) | relative viability (XMD8-85 + AZD7762; first compound 2.53 µM) |
| --- | --- | --- | --- | --- | --- | --- | --- | --- | --- | --- | --- | --- | --- | --- | --- | --- | --- | --- | --- | --- |
| NCI-H1915 | 0.434 | 0.404 | 0.494 | 0.389 | 0.296 | 0.735 | 0.71 | 0.683 | 0.725 | 0.434 | 0.523 | 0.484 | 0.5 | 0.457 | 0.367 | 0.35 | 0.374 | 0.343 | 0.233 |  |
| NCI-H1650 | 0.358 | 0.409 | 0.413 | 0.216 | 0.177 |  |  |  |  | 0.376 | 0.384 | 0.384 | 0.306 | 0.294 | 0.456 |  | 0.401 | 0.284 | 0.206 |  |
| HCC-44 | 0.802 | 0.898 | 1.15 | 0.51 | 0.356 | 1.05 | 1.06 | 1 | 1.06 | 0.65 | 0.701 | 0.647 | 0.597 | 0.632 | 0.184 |  | 0.192 | 0.118 | 0.137 | 1.01 |
| NCI-H2170 | 0.681 | 0.671 | 0.731 | 0.639 | 0.456 | 0.784 | 0.937 | 0.92 | 0.759 | 0.258 | 0.28 | 0.264 | 0.269 | 0.286 | 0.419 | 0.452 | 0.426 | 0.333 | 0.274 | 0.918 |
| NCI-H1975 | 0.701 | 0.721 | 0.763 | 0.485 | 0.145 | 0.742 | 0.656 | 0.661 | 0.547 | 0.257 | 0.286 | 0.305 | 0.282 | 0.227 | 0.444 | 0.356 | 0.407 | 0.442 | 0.361 | 0.653 |
| HCC-827 |  | 0.437 | 0.642 | 0.387 | 0.365 | 0.23 | 0.185 | 0.231 | 0.206 | 0.284 | 0.251 | 0.266 | 0.254 | 0.301 | 0.403 | 0.394 | 0.396 |  | 0.353 | 0.263 |
| NCI-H2347 | 0.497 | 0.438 | 0.545 | 0.516 | 0.386 | 0.686 |  | 0.732 | 0.704 | 0.393 | 0.529 | 0.427 | 0.406 | 0.431 | 0.614 |  | 0.379 | 0.363 | 0.344 |  |
| NCI-H1437 | 0.408 | 0.415 | 0.401 | 0.329 | 0.221 | 1.11 | 1.13 | 1.15 | 0.886 | 0.29 | 0.33 | 0.363 | 0.317 | 0.272 | 0.272 | 0.298 | 0.305 | 0.262 | 0.214 | 1.09 |
| NCI-H1623 | 0.495 | 0.336 | 0.41 | 0.421 | 0.367 |  |  |  |  |  |  |  |  |  | 0.586 | 0.5 | 0.607 | 0.45 | 0.53 |  |

From the supplement of paper PMC10307832
